Measurements as given in the supplement of paper PMC10307832.

Experiments:
Assay in all cases: relative viability (nuclei count vs DMSO), 5 days (fraction); higher = more cells survive
RO-3306 + Tozasertib = compound: C1=CC2=C(C=CC(=C2)C=C3C(=O)NC(=NCC4=CC=CS4)S3)N=C1 [RO-3306] + Cc1cc(Nc2cc(N3CCN(C)CC3)nc(Sc3ccc(NC(=O)C4CC4)cc3)n2)n[nH]1 [Tozasertib] (partner 0.1 µM)
How it was run: (§1)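 Dosing by pin tool came one day after lung cancer cell lines were seeded in 1536-well plates, using either one drug or a fixed anchor-drug dose plus five library-drug doses (not always all listed) in √10 steps. After 5 days, nuclei were counted on 4× images. Relative viability is treated-well nuclei count divided by vehicle-well nuclei count, and values are medians of duplicate plates.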

RO-3306 + Phenformin = compound: C1=CC2=C(C=CC(=C2)C=C3C(=O)NC(=NCC4=CC=CS4)S3)N=C1 [RO-3306] + N=C(N)NC(=N)NCCc1ccccc1 [Phenformin] (partner 250 µM)
How it was run: as §1

RO-3306 + Decitabine = compound: C1=CC2=C(C=CC(=C2)C=C3C(=O)NC(=NCC4=CC=CS4)S3)N=C1 [RO-3306] + Nc1ncn([C@H]2C[C@H](O)[C@@H](CO)O2)c(=O)n1 [Decitabine] (partner 2 µM)
How it was run: as §1

[1] = compound: O=S(=O)(c1ccccc1)N(CC(F)(F)F)c1ccc(C(O)(C(F)(F)F)C(F)(F)F)cc1 + CS(=O)(=O)CCNCc1ccc(-c2ccc3ncnc(Nc4ccc(OCc5cccc(F)c5)c(Cl)c4)c3c2)o1 [Lapatinib] (partner 2 µM)
How it was run: as §1

Cell Line	relative viability (RO-3306 + Tozasertib; first compound 0.01 µM)	relative viability (RO-3306 + Tozasertib; first compound 0.03162 µM)	relative viability (RO-3306 + Tozasertib; first compound 0.1 µM)	relative viability (RO-3306 + Tozasertib; first compound 0.3162 µM)	relative viability (RO-3306 + Tozasertib; first compound 1 µM)	relative viability (RO-3306 + Phenformin; first compound 0.01 µM)	relative viability (RO-3306 + Phenformin; first compound 0.03162 µM)	relative viability (RO-3306 + Phenformin; first compound 0.1 µM)	relative viability (RO-3306 + Phenformin; first compound 0.3162 µM)	relative viability (RO-3306 + Phenformin; first compound 1 µM)	relative viability (RO-3306 + Decitabine; first compound 0.01 µM)	relative viability (RO-3306 + Decitabine; first compound 0.03162 µM)	relative viability (RO-3306 + Decitabine; first compound 0.1 µM)	relative viability (RO-3306 + Decitabine; first compound 0.3162 µM)	relative viability (RO-3306 + Decitabine; first compound 1 µM)	relative viability ([1]; first compound 0.8 µM)	relative viability ([1]; first compound 2.53 µM)	relative viability ([1]; first compound 8 µM)
EMC-BAC-2	0.394	0.306	0.295	0.263	0.254	0.516	0.401	0.536	0.497	0.508	1.1	0.915	0.963	0.954	0.972	0.975	0.864	0.904
NCI-H2085	0.763	0.775	0.78	0.712	0.641	0.688	0.604	0.655	0.683	0.654	0.54	0.506	0.463	0.539	0.578	0.759	0.677	0.65
RERF-LC-KJ	0.634	0.434	0.546	0.521	0.463	0.428	0.445	0.416	0.445	0.407	0.763	0.715	0.689	0.75	0.665	0.828	0.715	0.693
NCI-H3122	0.449	0.413	0.42	0.475	0.284	0.419	0.612	0.397	0.391	0.665	0.406	0.345	0.379	0.461	0.42	0.975	0.897	1.03
NCI-H2023	0.401	0.327	0.254	0.241	0.308	0.459	0.38	0.398	0.403	0.356	0.25	0.285	0.208	0.218	0.213	0.742	0.743	0.55
NCI-H1944	0.235	0.25	0.234	0.259	0.242	0.206	0.182	0.2	0.168	0.194	0.424	0.432	0.424	0.453	0.376	0.897	0.856	0.951
HCC-78	0.436	0.4	0.515	0.431	0.448	0.705	0.586	0.642	0.723	0.696	0.674	0.597	0.657	0.661	0.692	0.61	0.592	0.614
PC-3 [JPC-3]	0.872	0.825	0.892	0.852	0.416	0.481	0.517	0.467	0.473	0.433	0.84	0.777	0.82	0.802	0.817	0.482	0.421	0.452
NCI-H2126	0.867	0.841	0.781	0.749	0.75	0.504	0.544	0.513	0.508	0.513	0.528	0.561	0.637	0.586	0.57	0.868	0.791	0.905
LK-2	0.183		0.164	0.167	0.169	0.445		0.312	0.499	0.344	0.279	0.215	0.282	0.301	0.286	1.13	0.82	0.913
NCI-H460	0.217	0.542	0.392	0.116	0.0669	0.635	0.365	0.496	0.555	0.544	0.52	0.44	0.509	0.645	0.462		0.834	0.779
HCC-827	0.452	0.417	0.376	0.4	0.419	0.406	0.308	0.407	0.381	0.408	0.339	0.316	0.345	0.379	0.289	0.231	0.201	0.217
NCI-H838	0.308	0.283	0.255	0.258	0.264	0.756	0.442	0.521	0.653	0.538	0.512	0.443	0.425	0.466	0.412	1.23	0.947	1.06
SW 1573	0.198		0.17	0.175	0.168	0.405		0.363	0.341	0.351	0.537	0.461	0.401	0.507	0.45	1.18	1.2	1.06
NCI-H2347	0.616	0.616	0.628	0.525	0.514	0.347	0.374	0.384	0.485	0.384	0.643	0.597	0.592	0.574	0.645	1.02	1.03	0.963
HARA	0.146	0.11	0.453	0.0948	0.101	0.471	0.357	0.504	0.429	0.466	0.523		0.58	0.654	0.692	0.642	0.575	0.552
NCI-H1355	0.473		0.532	0.515	0.491	0.429		0.516	0.422	0.404	0.395	0.341	0.353	0.355	0.362	1.04	0.961	0.926
NCI-H1395	0.635	0.681	0.749	0.696	0.643	0.377	0.479	0.421	0.46	0.459	0.663	0.699	0.656	0.68	0.724	1.1	0.993	1.13

Cell Line	relative viability (RO-3306 + Tozasertib; first compound 0.01 µM)	relative viability (RO-3306 + Tozasertib; first compound 0.03162 µM)	relative viability (RO-3306 + Tozasertib; first compound 0.1 µM)	relative viability (RO-3306 + Tozasertib; first compound 0.3162 µM)	relative viability (RO-3306 + Tozasertib; first compound 1 µM)	relative viability (RO-3306 + Phenformin; first compound 0.01 µM)	relative viability (RO-3306 + Phenformin; first compound 0.03162 µM)	relative viability (RO-3306 + Phenformin; first compound 0.1 µM)	relative viability (RO-3306 + Phenformin; first compound 0.3162 µM)	relative viability (RO-3306 + Phenformin; first compound 1 µM)	relative viability (RO-3306 + Decitabine; first compound 0.01 µM)	relative viability (RO-3306 + Decitabine; first compound 0.03162 µM)	relative viability (RO-3306 + Decitabine; first compound 0.1 µM)	relative viability (RO-3306 + Decitabine; first compound 0.3162 µM)	relative viability (RO-3306 + Decitabine; first compound 1 µM)	relative viability ([1]; first compound 0.8 µM)	relative viability ([1]; first compound 2.53 µM)	relative viability ([1]; first compound 8 µM)
NCI-H1437	0.485	0.328	0.384	0.397	0.474	0.317	0.261	0.308	0.297	0.316	0.59	0.513	0.549	0.596	0.631	0.861	0.651	0.622
NCI-H358	0.0852	0.0922	0.103	0.102	0.101	0.363	0.265	0.282	0.289	0.239	0.204	0.208	0.216	0.206	0.182	0.434	0.383	0.417
HOP-62	0.346	0.304	0.353	0.39	0.377	0.694	0.405	0.777	0.714	0.659	0.229	0.239	0.207	0.222	0.249	1.18	0.812	0.798
EKVX	0.415	0.361	0.382	0.359	0.356	0.245	0.196	0.218	0.217	0.22	0.298	0.277	0.385	0.322	0.29	0.187	0.188	0.171
NCI-H1666	0.64	0.588	0.59	0.631	0.59	0.561	0.55	0.515	0.54	0.552	0.729	0.75	0.736	0.711	0.641	0.725	0.625	0.408
NCI-H2170	0.689	0.933	0.663	0.804	0.679	0.425	0.422	0.396	0.383	0.435	0.473	0.433	0.471	0.458	0.486	0.276	0.299	0.288
201T	1	0.933	0.925	0.975	0.964	0.499	0.355	0.46	0.414	0.369	0.824	0.849	0.879	0.855	0.893	1.01	0.949	1.03
COR-L 105	0.361	0.337	0.329	0.379	0.32	0.499	0.386	0.417	0.517	0.429	0.652	0.607	0.596	0.623	0.658	0.377	0.386	0.371
NCI-H1755	0.577	0.688	0.514	0.547	0.554	0.65	0.62	0.63	0.622	0.544	0.73	0.739	0.728	0.706	0.707	1.15	0.797	1
NCI-H520	0.44	0.481	0.39	0.426	0.394	0.562	0.422	0.425	0.491	0.588	0.568	0.542	0.469	0.501	0.554	1.07	0.84	1.01
NCI-H1650	0.398	0.366	0.345	0.309	0.316	0.419	0.397	0.38	0.358	0.293	0.482	0.456	0.427	0.472	0.407	0.871	0.735	0.723
NCI-H1793	0.313	0.344	0.338	0.283	0.291	0.346	0.347	0.397	0.366	0.315	0.415		0.403	0.49	0.493	0.675	0.471	0.522
SK-LU-1	0.266	0.312	0.313	0.321	0.282	0.461	0.426	0.503	0.484	0.453	0.657	0.537	0.597	0.643	0.56	0.903	1.02	0.753
EPLC-272H	0.196	0.288	0.208	0.237	0.249	0.312	0.399	0.308	0.25	0.317	0.367		0.335	0.324	0.355	1.05	0.818	0.924
HCC-366	0.123	0.0945	0.0992	0.0958	0.0525	0.644	0.547	0.65	0.613	0.63	0.363	0.281	0.348	0.37	0.402	1.29	1.13	0.951
PC-14	0.78	0.572	0.527	0.562	0.488	0.616	0.504	0.503	0.595	0.499	0.196	0.209	0.222	0.277	0.244	0.26	0.191	0.223
LU99A	0.285	0.257	0.258	0.254	0.231	0.973	0.698	0.769	0.869	0.79	1.21	0.702	0.915	0.926	1	1.11	1.05	0.901
NCI-H2087	0.254	0.19	0.214	0.228	0.217	0.526	0.332	0.423	0.489	0.372	0.296	0.276	0.253	0.251	0.25	0.922	0.988	0.994
